From the supplement of paper PMC10307832

What was measured:
Assay in all cases: relative viability (nuclei count vs DMSO), 5 days (fraction); higher = more cells survive
Dasatinib + Vorinostat = compound: Cc1nc(Nc2ncc(C(=O)Nc3c(C)cccc3Cl)s2)cc(N2CCN(CCO)CC2)n1 [Dasatinib] + O=C(CCCCCCC(=O)Nc1ccccc1)NO [Vorinostat] (partner 1 µM)
Outline: (§1)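 Relative viability is defined as nuclei in treated wells over nuclei in vehicle wells. Duplicate plates were run and medians reported. Lung cancer cell lines in 1536-well plates were dosed by pin tool one day after seeding, with one drug or with a fixed anchor-drug dose plus five library-drug doses (not always all listed) in √10 steps, and nuclei were counted after 5 days.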

ALW-II-49-7 + Decitabine = compound: Cc1ccc(C(=O)Nc2cccc(C(F)(F)F)c2)cc1Nc1cncc(C(N)=O)c1 [ALW-II-49-7] + Nc1ncn([C@H]2C[C@H](O)[C@@H](CO)O2)c(=O)n1 [Decitabine] (partner 2 µM)
Outline: as §1

ALW-II-49-7 + OSI-027 = compound: Cc1ccc(C(=O)Nc2cccc(C(F)(F)F)c2)cc1Nc1cncc(C(N)=O)c1 [ALW-II-49-7] + COc1cccc2cc(-c3nc([C@H]4CC[C@H](C(=O)O)CC4)n4ncnc(N)c34)[nH]c12 [OSI-027] (partner 0.5 µM)
Outline: as §1

Dasatinib + AZD7762 = compound: Cc1nc(Nc2ncc(C(=O)Nc3c(C)cccc3Cl)s2)cc(N2CCN(CCO)CC2)n1 [Dasatinib] + NC(=O)Nc1cc(-c2cccc(F)c2)sc1C(=O)N[C@H]1CCCNC1 [AZD7762] (partner 0.2 µM)
Outline: as §1

Cell Line	relative viability (Dasatinib + Vorinostat; first compound 0.005 µM)	relative viability (Dasatinib + Vorinostat; first compound 0.01581 µM)	relative viability (Dasatinib + Vorinostat; first compound 0.05 µM)	relative viability (Dasatinib + Vorinostat; first compound 0.1581 µM)	relative viability (Dasatinib + Vorinostat; first compound 0.5 µM)	relative viability (ALW-II-49-7 + Decitabine; first compound 0.08 µM)	relative viability (ALW-II-49-7 + Decitabine; first compound 0.253 µM)	relative viability (ALW-II-49-7 + Decitabine; first compound 0.8 µM)	relative viability (ALW-II-49-7 + Decitabine; first compound 2.53 µM)	relative viability (ALW-II-49-7 + Decitabine; first compound 8 µM)	relative viability (ALW-II-49-7 + OSI-027; first compound 0.08 µM)	relative viability (ALW-II-49-7 + OSI-027; first compound 0.253 µM)	relative viability (ALW-II-49-7 + OSI-027; first compound 0.8 µM)	relative viability (ALW-II-49-7 + OSI-027; first compound 2.53 µM)	relative viability (ALW-II-49-7 + OSI-027; first compound 8 µM)	relative viability (Dasatinib + AZD7762; first compound 0.005 µM)	relative viability (Dasatinib + AZD7762; first compound 0.01581 µM)	relative viability (Dasatinib + AZD7762; first compound 0.05 µM)	relative viability (Dasatinib + AZD7762; first compound 0.1581 µM)	relative viability (Dasatinib + AZD7762; first compound 0.5 µM)
HARA	0.508	0.474	0.438	0.272	0.274	0.689	0.47	0.497	0.52	0.663	0.547	0.441	0.298	0.387	0.442	0.31	0.129	0.298	0.291	0.184
201T	0.912	0.723	0.792	0.649	0.346	0.832	0.84	0.872	0.846	0.904	0.68	0.841	0.462	0.493	0.684	0.848	0.635	0.493	0.455	0.302
LC-2-ad	0.723	0.675	0.75	0.493	0.337	0.84	0.845	0.861	0.8	0.863	0.733	0.843	0.783	0.73	0.771	0.871	0.727	0.599	0.337	0.268
NCI-H596	0.59	0.384	0.412	0.313	0.322	0.884	1.23	1.1	1.12	1.05	0.777	0.749	0.589	0.624	0.776	0.945	0.828	0.929	0.74	0.553
NCI-H1437	0.972	1.04	1.03	0.914	0.59	0.551	0.553	0.594	0.624	0.644	0.835	0.744	0.751	0.877	0.75	1.22	1.05	1.04	0.893	0.221
SW 1573	0.968	–	0.649	0.538	0.491	0.442	0.601	0.654	0.44	0.423	0.683	0.653	0.524	0.656	0.505	–	–	–	–	–
NCI-H2228	0.618	0.564	0.333	0.387	0.388	–	–	–	–	–	0.502	0.269	0.496	0.59	0.471	–	–	–	–	–
NCI-H1650	0.591	0.61	0.568	0.406	0.278	0.447	0.399	0.432	0.462	0.493	0.444	0.412	0.451	0.631	0.687	–	–	–	–	–
NCI-H1792	–	–	–	–	–	0.553	0.356	0.486	0.506	0.633	0.805	0.774	0.609	0.149	0.376	0.62	0.532	0.489	0.19	0.0904
COR-L 105	0.891	0.58	0.683	0.445	0.363	0.722	0.71	0.673	0.58	0.616	0.644	0.719	0.66	0.644	0.753	–	–	–	–	–
NCI-H2009	0.75	0.681	0.762	0.426	0.133	0.326	0.446	0.368	0.438	0.467	0.615	0.67	0.532	0.408	0.406	–	–	–	–	–
CAL-12T	1.02	0.846	0.708	0.477	0.225	–	–	–	–	–	0.734	0.745	0.612	0.759	0.503	0.637	0.584	0.681	0.613	0.538
NCI-H1623	–	–	–	–	–	–	–	–	–	–	0.416	0.408	0.371	0.351	0.357	–	–	–	–	–
NCI-H1703	–	–	–	–	–	–	–	–	–	–	–	–	–	–	–	0.128	0.121	0.139	0.116	0.13
IA-LM	1.13	0.89	1.03	0.691	0.538	–	–	–	–	–	–	–	–	–	–	–	–	–	–	–
COR-L23	0.419	0.342	0.323	0.237	0.24	0.426	0.521	0.408	0.501	0.439	0.556	0.709	0.828	0.715	0.677	–	–	–	–	–
SK-LU-1	0.686	0.647	0.473	0.278	0.246	0.658	0.61	0.489	0.639	0.5	0.269	0.345	0.313	0.289	0.252	–	–	–	–	–
NCI-H1563	–	–	–	–	–	–	–	–	–	–	0.717	0.71	0.731	0.782	0.679	–	–	–	–	–
NCI-H520	0.677	0.476	0.418	0.227	0.229	0.559	0.472	0.497	0.531	0.561	0.258	0.249	0.25	0.242	0.262	–	–	–	–	–
